# In patent US6348309B1, “Process for inactivating viruses in blood and blood products” (priority 1989, dated 2002):
# Assays:
# coagulation factor VIII = biological target: T1, coagulation factor VIII (Homo sapiens, UniProt P00451); test: Coagulation factor activity in human plasma with MB and light exposure (Example 10); type: biochemical
# T1 construct: Varying amounts of MB were added to human plasma (2 ml aliquots); from tissue; host or cells: human plasma
# T1 sequence (P00451 20-1332 limits assumed): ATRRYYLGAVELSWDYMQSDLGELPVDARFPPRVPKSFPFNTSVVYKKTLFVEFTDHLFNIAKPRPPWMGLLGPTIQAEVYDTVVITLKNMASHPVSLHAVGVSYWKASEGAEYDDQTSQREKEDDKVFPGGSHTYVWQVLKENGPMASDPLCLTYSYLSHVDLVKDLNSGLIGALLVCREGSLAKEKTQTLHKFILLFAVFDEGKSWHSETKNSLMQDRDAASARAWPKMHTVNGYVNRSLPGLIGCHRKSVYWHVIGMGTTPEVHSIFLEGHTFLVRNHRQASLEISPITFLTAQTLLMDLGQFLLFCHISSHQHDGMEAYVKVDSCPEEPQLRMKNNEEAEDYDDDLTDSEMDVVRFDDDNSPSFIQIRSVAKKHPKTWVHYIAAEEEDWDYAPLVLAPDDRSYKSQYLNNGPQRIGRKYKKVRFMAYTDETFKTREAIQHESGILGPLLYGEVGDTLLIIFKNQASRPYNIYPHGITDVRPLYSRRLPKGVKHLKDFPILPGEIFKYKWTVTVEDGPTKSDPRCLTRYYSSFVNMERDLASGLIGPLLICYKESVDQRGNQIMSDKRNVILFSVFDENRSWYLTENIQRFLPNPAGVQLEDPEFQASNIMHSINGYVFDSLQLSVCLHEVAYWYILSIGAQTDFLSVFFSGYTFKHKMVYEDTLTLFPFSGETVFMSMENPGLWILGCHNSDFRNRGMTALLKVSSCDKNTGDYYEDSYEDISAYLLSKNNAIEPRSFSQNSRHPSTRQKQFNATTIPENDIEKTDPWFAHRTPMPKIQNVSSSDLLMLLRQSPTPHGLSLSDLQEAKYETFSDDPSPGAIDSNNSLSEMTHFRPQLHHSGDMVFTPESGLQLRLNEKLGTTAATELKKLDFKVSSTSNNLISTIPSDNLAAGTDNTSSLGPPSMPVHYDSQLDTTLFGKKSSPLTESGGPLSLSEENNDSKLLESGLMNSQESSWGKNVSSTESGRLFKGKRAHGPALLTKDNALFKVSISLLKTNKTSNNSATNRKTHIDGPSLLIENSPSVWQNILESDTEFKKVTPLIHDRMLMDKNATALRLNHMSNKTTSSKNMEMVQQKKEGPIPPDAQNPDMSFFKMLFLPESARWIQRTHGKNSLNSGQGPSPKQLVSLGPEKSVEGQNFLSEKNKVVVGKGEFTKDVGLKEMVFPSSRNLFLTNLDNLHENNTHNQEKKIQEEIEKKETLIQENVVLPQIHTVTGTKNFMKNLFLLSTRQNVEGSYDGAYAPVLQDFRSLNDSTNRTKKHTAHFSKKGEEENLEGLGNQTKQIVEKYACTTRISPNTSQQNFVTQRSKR
# T1 sequence (P00451 1668-2351 limits assumed): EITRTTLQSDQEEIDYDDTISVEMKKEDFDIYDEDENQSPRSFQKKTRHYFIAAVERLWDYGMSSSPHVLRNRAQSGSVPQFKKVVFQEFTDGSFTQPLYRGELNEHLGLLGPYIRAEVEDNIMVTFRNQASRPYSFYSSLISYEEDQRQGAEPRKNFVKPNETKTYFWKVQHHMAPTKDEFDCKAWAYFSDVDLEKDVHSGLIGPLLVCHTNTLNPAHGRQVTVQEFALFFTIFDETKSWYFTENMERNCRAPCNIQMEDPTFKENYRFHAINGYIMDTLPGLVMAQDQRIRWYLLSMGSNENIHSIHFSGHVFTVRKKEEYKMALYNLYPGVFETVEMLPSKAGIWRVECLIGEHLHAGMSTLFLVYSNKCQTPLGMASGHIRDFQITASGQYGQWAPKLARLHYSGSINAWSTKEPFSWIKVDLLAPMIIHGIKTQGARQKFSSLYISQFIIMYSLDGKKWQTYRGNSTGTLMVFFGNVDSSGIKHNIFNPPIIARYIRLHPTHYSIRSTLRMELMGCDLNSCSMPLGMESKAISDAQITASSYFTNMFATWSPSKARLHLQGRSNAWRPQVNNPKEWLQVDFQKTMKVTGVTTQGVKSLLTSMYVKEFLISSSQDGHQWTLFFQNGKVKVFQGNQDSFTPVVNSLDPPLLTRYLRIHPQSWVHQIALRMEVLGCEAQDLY
# VSV = type: cell-based, vesicular stomatitis virus
# Influenza = type: cell-based
compound,measurement,setting,value
"CN(C)c1ccc2nc3ccc(=[N+](C)C)cc-3sc2c1 [MB, methylene blue]",Factor VIII,"coagulation factor VIII; light exposure 0 h, MB 1 μM",0.45 E/ml
same,Factor VIII,"coagulation factor VIII; light exposure 0 h, MB 2.5 μM",0.33 E/ml
same,Factor VIII,"coagulation factor VIII; light exposure 0 h, MB 10 μM",0.30 E/ml
same,Factor VIII,"coagulation factor VIII; light exposure 1 h, MB 1 μM",0.24 E/ml
same,Factor VIII,"coagulation factor VIII; light exposure 1 h, MB 2.5 μM",0.24 E/ml
same,Factor VIII,"coagulation factor VIII; light exposure 1 h, MB 10 μM",0.16 E/ml
same,Factor VIII,"coagulation factor VIII; light exposure 2 h, MB 1 μM",0.23 E/ml
same,Factor VIII,"coagulation factor VIII; light exposure 2 h, MB 2.5 μM",0.22 E/ml
same,Factor VIII,"coagulation factor VIII; light exposure 2 h, MB 10 μM",0.15 E/ml
same,Factor VIII,"coagulation factor VIII; light exposure 4 h, MB 1 μM",0.16 E/ml
same,Factor VIII,"coagulation factor VIII; light exposure 4 h, MB 2.5 μM",0.29 E/ml
same,Factor VIII,"coagulation factor VIII; light exposure 4 h, MB 10 μM",0.27 E/ml
same,inactivation of VSV,VSV,only partial inactivation
same,time until viral infectivity almost completely reduced to the detection limit,VSV,15 to 30 min
same,Inactivation Rate,Influenza,5.10 log10 TCID50
